{"source": "patent US8187825B2", "about": "“Thiol detection method” (Riken, priority 2008, dated 2012)", "key": {"[1]": {"settings": "cited from earlier work"}, "[2]": {"test": "Fluorescence measurement of probe with cysteine", "settings": "100 nM probe", "procedure": "The reaction was carried out using the 100 nM probe (compound 2) and 10 mM cysteine at 37° C. for 30 minutes in 50 mM Tris-HCl (pH 7.4). A fluorescence spectrum was obtained with a fluorescence spectrometer (FP-6500; JASCO). Fluorescence was obtained by excitation at 490 nm at a scanning range of 450 to 650 nm.\nFluorescence was monitored by excitation at 490 nm."}, "[3]": {"test": "Reactivity of probe with thiol (fluorescence intensity at 522 nm)", "settings": "1 μM probe, 37° C., 30 minutes, 50 mM Tris-HCl pH 7.4", "procedure": "The reactivity of the probe (compound 2) with several types of thiols was examined by measuring an increase in the fluorescence intensity at 522 nm. The reaction was carried out using the 1 μM probe and 1 mM thiol at 37° C. for 30 minutes in 50 mM Tris-HCl (pH 7.4).\nIn addition, as a comparative example, a compound represented by the following formula (3) was used as a probe, and its reactivity was examined in the same above manner:\nAfter addition of thiol, the solution was incubated at 37° C. for 30 minutes. The fluorescence at 522 nm was monitored by excitation at 490 nm. “3′-thio dT” indicates 3′-phosphorothioate-2′-deoxythymidine; “DTT” indicates dithiothreitol; “GSH” indicates glutathione; “L-Gly” indicates L-glycine; and “Vc” indicates ascorbic acid."}, "[4]": {"test": "Stability of probe on heating in Tris buffer", "assay_type": "physicochemical", "settings": "55° C. for 24 hours in 50 mM Tris buffer (pH 7.4)"}, "HeLa cells": {"system": "HeLa cells", "test": "Fluorescence microscope observation of living HeLa cells", "assay_type": "cell-based", "procedure": "HeLa cells were allowed to grow at 37° C. in a 5% CO2 atmosphere in MEM in order to use them for a test with living cells. The cells were incubated at 37° C. for 15 minutes in the presence of the 25 μM probe (compound 2) (1:100 DMSO/PBS(−), v/v). As a control experiment, the cells were treated with 1 mM N-methylmaleimide in PBS(−) at 37° C. for 60 minutes, and the resultant cells were then washed with a PBS(−) buffer three times. Thereafter, the cells were incubated at 37° C. for 15 minutes in the presence of the 25 μM probe (1:100 DMSO/PBS(−), v/v).\nThe fluorescence image was obtained using a digital camera (Cool Snap HQ; Roper Scientific) and imaging software (MetaMorph; Molecular Devices), under a fluorescence microscope equipped with a mercury lamp (Axiovert 200M; Carl Zeiss). The conditions of the microscope were determined as follows. Excitation: 470/40 bandpass filter; light emission: 525/50 bandpass filter; and irradiation time: 300 msec.\n(a, b): a control image of the cells, which were pre-treated with N-methylmaleimide (1 mM) at 37° C. for 60 minutes and were then incubated together with the probe (25 μM) at 37° C. for 15 minutes; (c, d): an image of the cells, which were incubated together with the probe (25 μM) at 37° C. for 15 minutes; (a, c) a bright-field image; (b, d) a fluorescent image. The conditions of the microscope were determined as follows. Excitation: 470/40 bandpass filter; light emission: 525/50 bandpass filter; and irradiation time: 300 msec."}, "[5]": {"test": "Fluorescence measurement in solution with GSH", "settings": "100 nM probe", "procedure": "The 100 nM probe (compound 4) was allowed to react with 10 mM GSH in 50 mM Tris-HCl (pH 7.4) at 37° C. for 30 minutes. Thereafter, the fluorescence intensity was measured using a fluorescence spectrometer (FP-6500; JASCO) (excitation wavelength: 540 nm)."}, "HL60": {"system": "HL60", "test": "Flow cytometry of HL60 cells", "assay_type": "cell-based", "settings": "100 μM probe, 37° C., 15 minutes; control pre-treated with 1 mM N-methylmaleimide 30 minutes", "procedure": "The 100 μM probe (compound 4) was added to HL60, and the mixture was then reacted at 37° C. for 15 minutes. Thereafter, a measurement was then carried out by flow cytometry. 1 mM N-methylmaleimide (N-MMI) used as a thiol-blocking agent was added to HL60, and the obtained mixture was then reacted at 37° C. for 30 minutes. Thereafter, the 100 μM probe was added to the reaction product, and the obtained mixture was reacted at 37° C. for 15 minutes. Thereafter, the measurement was carried out by flow cytometry."}}}
{"smiles": "OCCS", "note": "[2-mercaptoethanol]", "values": [{"measurement": "pKa value", "setting": "[1]", "result": 9.5}]}
{"smiles": "O=C1OC2(c3ccc(NS(=O)(=O)c4ccc([N+](=O)[O-])cc4[N+](=O)[O-])cc3Oc3cc(NS(=O)(=O)c4ccc([N+](=O)[O-])cc4[N+](=O)[O-])ccc32)c2ccccc21", "note": "[compound 2]", "values": [{"measurement": "increase in fluorescence intensity around 520 nm after addition of cysteine (factor)", "setting": "[2]; 10 mM cysteine, 50 mM Tris-HCl pH 7.4, 37° C., 30 minutes, excitation 490 nm", "result": "approximately 3500"}, {"measurement": "fluorescence of the probe without cysteine", "setting": "[2]; no cysteine, 50 mM Tris-HCl pH 7.4, excitation 490 nm", "result": "no significant fluorescence was observed"}, {"measurement": "increase in fluorescence intensity at 522 nm", "setting": "[3]; 1 mM 2-mercaptoethanol (ME)", "result": 11, "unit": "times"}, {"measurement": "activity on other biological substances (selectivity)", "setting": "[3]; glycine, ascorbic acid, or hydrogen peroxide", "result": "did not exhibit activity"}, {"measurement": "stability: fluorescence signal after heating", "setting": "[4]", "result": "no increase in the fluorescence signal was detected"}, {"measurement": "fluorescence signal of cells pre-treated with thiol-blocking agent", "setting": "HeLa cells; HeLa cells pre-treated with 1 mM N-methylmaleimide 60 minutes, then 25 μM probe 15 minutes", "result": "no fluorescence signal was observed"}, {"measurement": "permeation into cells", "setting": "HeLa cells; HeLa cells, 25 μM probe", "result": "permeates into the cell membrane"}, {"measurement": "fluorescence signal of cells", "setting": "HeLa cells; HeLa cells, 25 μM probe, 15 minutes, 37° C.", "result": "significant fluorescence signal"}]}
{"smiles": "Nc1ccc2nc3c4ccccc4/c(=N\\S(=O)(=O)c4ccc([N+](=O)[O-])cc4[N+](=O)[O-])cc-3oc2c1", "note": "[compound 4]", "values": [{"measurement": "fluorescence intensity at 620 nm after reaction with GSH", "setting": "[5]; 10 mM GSH, 37° C., 30 minutes, 50 mM Tris-HCl pH 7.4, excitation 540 nm", "result": "an increase in the fluorescence intensity was observed"}, {"measurement": "fluorescence of the probe as a single body (without GSH)", "setting": "[5]; excitation 540 nm, 50 mM Tris-HCl pH 7.4", "result": "generated no fluorescence"}, {"measurement": "fluorescence intensity of HL60 cells (−N-MMI) versus HL60 cells (+N-MMI)", "setting": "HL60", "result": "higher"}]}
{"smiles": "O=C1OC2(c3ccc(NS(=O)(=O)c4ccc([N+](=O)[O-])cc4)cc3Oc3cc(NS(=O)(=O)c4ccc([N+](=O)[O-])cc4)ccc32)c2ccccc21", "note": "[formula (3), reference compound]", "values": [{"measurement": "increase in fluorescence intensity at 522 nm", "setting": "[3]; 1 mM phosphorothioate (3′-thio dT)", "result": "approximately 950 times"}, {"measurement": "reaction with other thiol groups", "setting": "[3]; 1 mM thiols other than phosphorothioate", "result": "did not react with other thiol groups"}]}
